From patent publication US10239873B2, “7-azaindole or 4,7-diazaindole derivatives as IKKϵ epsilon and TBK1 inhibitor and pharmaceutical composition comprising same” (GREEN CROSS CORPORATION, priority 2015, dated 2019)
pIC50: −log10 of the molar value.

Legend:
TBK1 = molecular target: T1, TBK1 (Homo sapiens, UniProt Q9UHD2); test: ADP-Glo Kinase Assay, inhibition activity on TBK1; format: biochemical
T1 construct: purchased Promega (Invitrogen is also named in the same bracket) V4158; PR8031B; V3991 (not assigned to the two kinases)
T1 sequence (Q9UHD2 1-729): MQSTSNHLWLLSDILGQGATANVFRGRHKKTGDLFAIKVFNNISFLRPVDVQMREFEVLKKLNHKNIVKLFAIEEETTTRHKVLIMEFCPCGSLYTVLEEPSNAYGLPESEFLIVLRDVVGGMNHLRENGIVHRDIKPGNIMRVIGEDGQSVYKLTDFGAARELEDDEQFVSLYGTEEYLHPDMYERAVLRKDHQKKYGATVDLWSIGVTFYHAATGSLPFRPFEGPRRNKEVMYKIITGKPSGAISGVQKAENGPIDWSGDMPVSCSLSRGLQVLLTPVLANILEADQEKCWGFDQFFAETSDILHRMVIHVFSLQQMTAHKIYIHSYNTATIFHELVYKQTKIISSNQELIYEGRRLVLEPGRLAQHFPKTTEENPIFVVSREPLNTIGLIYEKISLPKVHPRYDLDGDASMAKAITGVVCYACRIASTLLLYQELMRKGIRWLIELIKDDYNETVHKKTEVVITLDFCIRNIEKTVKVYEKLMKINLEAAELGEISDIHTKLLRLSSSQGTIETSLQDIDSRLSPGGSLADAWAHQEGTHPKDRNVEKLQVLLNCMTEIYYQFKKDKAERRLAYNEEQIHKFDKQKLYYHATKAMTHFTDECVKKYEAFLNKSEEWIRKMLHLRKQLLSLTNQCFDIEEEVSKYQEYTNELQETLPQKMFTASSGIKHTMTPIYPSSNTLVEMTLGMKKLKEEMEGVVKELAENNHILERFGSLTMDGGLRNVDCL
Outline: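 Kinase activity measured with the ADP-Glo luminescent ADP-detection kit per manufacturer's protocol, using IKKε or TBK1 kinase enzyme systems. Reaction buffer: 40 mM Tris (pH 7.5), 20 mM MgCl2, 0.1 mg/mL BSA; luminescence read on a luminometer.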

IKKε = molecular target: T2, IKKε (Homo sapiens, UniProt Q14164); test: ADP-Glo Kinase Assay, inhibition activity on IKKε; format: biochemical
T2 construct: purchased Promega and/or Invitrogen V4158; PR8031B; V3991 (not assigned to the two kinases)
T2 sequence (Q14164 1-716): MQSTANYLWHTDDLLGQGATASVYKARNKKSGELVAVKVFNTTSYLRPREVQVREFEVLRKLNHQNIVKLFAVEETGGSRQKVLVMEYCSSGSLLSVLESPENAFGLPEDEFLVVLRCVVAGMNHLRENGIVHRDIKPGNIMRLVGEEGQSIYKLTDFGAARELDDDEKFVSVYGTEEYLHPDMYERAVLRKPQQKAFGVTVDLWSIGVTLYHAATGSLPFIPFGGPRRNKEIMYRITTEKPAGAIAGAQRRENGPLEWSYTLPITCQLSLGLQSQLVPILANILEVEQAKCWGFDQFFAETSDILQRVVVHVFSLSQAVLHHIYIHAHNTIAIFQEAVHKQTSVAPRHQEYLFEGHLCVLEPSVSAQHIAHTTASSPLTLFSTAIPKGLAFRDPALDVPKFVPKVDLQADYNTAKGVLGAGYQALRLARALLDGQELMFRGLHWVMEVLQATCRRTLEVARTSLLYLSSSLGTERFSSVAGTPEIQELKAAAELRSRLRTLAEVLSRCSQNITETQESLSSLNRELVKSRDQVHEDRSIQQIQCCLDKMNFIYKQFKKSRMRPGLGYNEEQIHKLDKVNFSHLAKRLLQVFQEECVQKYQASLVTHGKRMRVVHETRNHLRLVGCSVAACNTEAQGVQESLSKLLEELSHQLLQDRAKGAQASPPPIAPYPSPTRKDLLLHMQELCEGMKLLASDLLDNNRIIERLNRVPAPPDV
Method: Inhibition activities on IKKϵ and TBK1 were evaluated using the compounds of Examples 1 to 250.
The inhibition activities on IKKϵ and TBK1 were measured by a luminometer, IKKϵ/TBK1 Kinase Enzyme System (Promega, Ca# V4158; Invitrogen, PR8031B, Promega, Ca# V3991) and ADP-Glo Kinase Assay using ADP-Glo™ Kinase Analysis Kit (Promega, Ca# V9101) and a kinase reaction buffer [40 mM Tris(pH 7.5), 20 mM MgCl2, 0.1 mg/mL BSA] in accordance with the manufacturer's protocol.

Row | Compound | pIC50 (TBK1) | pIC50 (IKKε)
1 | CC1C=C(c2c[nH]c3ncc(-c4ccc(C(=O)N5CCN(C)CC5)cc4)cc23)CCN1C(=O)NC1CC1 (stereo not drawn) [Example 94, N-cyclopropyl-2-methyl-4-(5-(4-(4-methylpiperazine-1-carbonyl)phenyl)-1H-pyrrolo[2,3-b]pyridin-3-yl)-5,6-dihydropyridine-1(2H)-carboxamide] | 8.41 | 8.00
2 | CC(C)NC(=O)N1C2C=C(c3c[nH]c4ncc(-c5ccc(CN6CCOCC6)s5)cc34)CC1CCC2 (stereo not drawn) [Example 118, N-isopropyl-3-(5-(5-(morpholinomethyl)thiophen-2-yl)-1H-pyrrolo[2,3-b]pyridin-3-yl)-9-azabicyclo[3.3.1]non-3-ene-9-carboxamide] | 6.47 | 6.21
3 | CC(C)NC(=O)N1C2C=C(c3c[nH]c4ncc(-c5ccc(CN6CCOCC6)s5)cc34)CC1CC2 (stereo not drawn) [Example 117, N-isopropyl-3-(5-(5-(morpholinomethyl)thiophen-2-yl)-1H-pyrrolo[2,3-b]pyridin-3-yl)-8-azabicyclo[3.2.1]oct-3-ene-8-carboxamide] | 5.57 | 5.32
4 | COc1ccc(-c2cnc3[nH]cc(C4=CCN(C(=O)NC5CCCC5)CC4)c3c2)cc1F [Example 50, N-cyclopentyl-4-(5-(3-fluoro-4-methoxyphenyl)-1H-pyrrolo[2,3-b]pyridin-3-yl)-5,6-dihydropyridine-1(2H)-carboxamide] | 6.48 | 6.39
5 | O=C(NC1CC1)N1CC=C(c2c[nH]c3ncc(-c4ccc(CN5CCOCC5)s4)cc23)CC1 [Example 48, N-cyclopropyl-4-(5-(5-(morpholinomethyl)thiophen-2-yl)-1H-pyrrolo[2,3-b]pyridin-3-yl)-5,6-dihydropyridine-1(2H)-carboxamide] | 8.09 | 8.00
6 | CCN1CC=C(c2c[nH]c3ncc(-c4ccc(OC)c(OC)c4)cc23)CC1 [Example 3, 5-(3,4-Dimethoxyphenyl)-3-(1-ethyl-1,2,3,6-tetrahydropyridin-4-yl)-1H-pyrrolo[2,3-b]pyridine] | 5.23 | < 5.00
7 | CC(C)NC(=O)N1CC=C(c2c[nH]c3ncc(-c4ccc(OC5CCOCC5)cc4)cc23)CC1 [Example 38, N-isopropyl-4-(5-(4-((tetrahydro-2H-pyran-4-yl)oxy)phenyl)-1H-pyrrolo[2,3-b]pyridin-3-yl)-3,6-dihydropyridine-1(2H)-carboxamide] | 7.54 | 7.68
8 | CN(C)S(=O)(=O)c1ccc(-c2cnc3[nH]cc(C4=CCN(C(=O)OC5CCCC5)CC4)c3c2)cc1 [Example 179, Cyclopentyl 4-(5-(4-(N,N-dimethylsulfamoyl)phenyl)-1H-pyrrolo[2,3-b]pyridin-3-yl)-5,6-dihydropyridine-1(2H)-carboxylate] | 6.47 | 6.30
9 | COc1ccc(-c2cnc3[nH]cc(C4CCN(C(=O)NC(C)C)C4)c3c2)cc1OC (stereo not drawn) [Example 238, 3-(5-(3,4-dimethoxyphenyl)-1H-pyrrolo[2,3-b]pyridin-3-yl)-N-isopropylpyrrolidine-1-carboxamide] | 5.21 | 5.22
10 | CC(C)NC(=O)N1CC=C(c2c[nH]c3ncc(-c4ccc(F)cc4)cc23)CC1 [Example 13, 4-(5-(4-Fluorophenyl)-1H-pyrrolo[2,3-b]pyridin-3-yl)-N-isopropyl-3,6-dihydropyridine-1(2H)-carboxamide] | 7.51 | 5.17
11 | CCN1CCN(Cc2ccc(-c3cnc4[nH]cc(C5=CCN(C(=O)NC(C)C)CC5)c4c3)cc2)CC1 [Example 22, 4-(5-(4-((4-Ethylpiperazin-1-yl)methyl)phenyl)-1H-pyrrolo[2,3-b]pyridin-3-yl)-N-isopropyl-3,6-dihydropyridine-1(2H)-carboxamide] | 8.00 | 7.70
12 | COc1ccc(-c2cnc3[nH]cc(C4=CCN(C(=O)NC(C)C)CC4)c3c2)cc1 [Example 12, N-isopropyl-4-(5-(4-methoxyphenyl)-1H-pyrrolo[2,3-b]pyridin-3-yl)-3,6-dihydropyridine-1(2H)-carboxamide] | 7.54 | 5.66
13 | COc1ccc(-c2cnc3[nH]cc(C4=CC(C)N(C(=O)NC5CCCC5)CC4)c3c2)cc1OC (stereo not drawn) [Example 108, N-cyclopentyl-4-(5-(3,4-dimethoxyphenyl)-1H-pyrrolo[2,3-b]pyridin-3-yl)-2-methyl-5,6-dihydropyridine-1(2H)-carboxamide] | 7.64 | 7.54
14 | NS(=O)(=O)c1cccc(-c2cnc3[nH]cc(C4=CCN(C(=O)OC5CCCC5)CC4)c3c2)c1 [Example 145, Cyclopentyl 4-(5-(3-sulfamoylphenyl)-1H-pyrrolo[2,3-b]pyridin-3-yl)-5,6-dihydropyridine-1(2H)-carboxylate] | 7.48 | 6.92
15 | O=C(NC1COC1)N1CC=C(c2c[nH]c3ncc(-c4ccc(CN5CCOCC5)s4)cc23)CC1 [Example 80, 4-(5-(5-(Morpholinomethyl)thiophen-2-yl)-1H-pyrrolo[2,3-b]pyridin-3-yl)-N-(oxetan-3-yl)-5,6-dihydropyridine-1(2H)-carboxamide] | 8.92 | 8.47
16 | CC1CN(C(=O)NC2CCCC2)CC=C1c1c[nH]c2ncc(-c3cccc(S(C)(=O)=O)c3)cc12 (stereo not drawn) [Example 122, N-cyclopentyl-5-methyl-4-(5-(3-(methylsulfonyl)phenyl)-1H-pyrrolo[2,3-b]pyridin-3-yl)-5,6-dihydropyridine-1(2H)-carboxamide] | 7.44 | 7.01
17 | CCCN1CC=C(c2c[nH]c3ncc(-c4ccc(CN5CCOCC5)s4)cc23)CC1 [Example 7, 4-((5-(3-(1-Propyl-1,2,3,6-tetrahydropyridin-4-yl)-1H-pyrrolo[2,3-b]pyridin-5-yl)thiophen-2-yl)methyl)morpholine] | 5.72 | 5.37
18 | CC1C=C(c2c[nH]c3ncc(-c4ccc(CN5CCN(C)CC5)cc4)cc23)CCN1C(=O)NC1CCC1 (stereo not drawn) [Example 99, N-cyclobutyl-2-methyl-4-(5-(4-((4-methylpiperazin-1-yl)methyl)phenyl)-1H-pyrrolo[2,3-b]pyridin-3-yl)-5,6-dihydropyridine-1(2H)-carboxamide] | 7.55 | 7.19
19 | COc1ccc(-c2cnc3[nH]cc(C4=CCN(C(=O)NC(C)C)C4)c3c2)cc1OC [Example 237, 3-(5-(3,4-dimethoxyphenyl)-1H-pyrrolo[2,3-b]pyridin-3-yl)-N-isopropyl-2,5-dihydro-1H-pyrrol-1-carboxamide] | < 5.00 | < 5.00
20 | CCC(C)NC(=O)N1CC=C(c2c[nH]c3ncc(-c4ccc(CN5CCN(C)CC5)s4)cc23)CC1 (stereo not drawn) [Example 42, N-(sec-butyl)-4-(5-(5-((4-methylpiperazin-1-yl)methyl)thiophen-2-yl)-1H-pyrrolo[2,3-b]pyridin-3-yl)-5,6-dihydropyridine-1(2H)-carboxamide] | 8.72 | 7.21
21 | CC(C)NC(=O)N1CC=C(c2c[nH]c3ncc(-c4ccc(C(=O)N5CCN(C)CC5)cc4)cc23)CC1 [Example 32, N-isopropyl-4-(5-(4-(4-methylpiperazine-1-carbonyl)phenyl)-1H-pyrrolo[2,3-b]pyridin-3-yl)-5,6-dihydropyridine-1(2H)-carboxamide] | 8.15 | 7.89
